According to paper PMC6568410, “A scorpion venom peptide derivative BmKn‒22 with potent antibiofilm activity against Pseudomonas aeruginosa” (PLoS ONE, 2019):
Where no end group is shown, it is not given here.

System: P. aeruginosa PAO1 established biofilms
Test: Established (24 h-preformed) biofilm assay, crystal violet staining
Type: cell-based, Pseudomonas aeruginosa
Procedure: Antibiofilm activity of the test peptides was also examined against established biofilms as follows. Aliquots of the P. aeruginosa PAO1 suspension adjusted to a final concentration of 10^6 CFU/mL were seeded into the wells of flat-bottomed 96-well microtiter plates (Nunc). Biofilms were established at 37°C for 24 h. After incubation, nonadherent planktonic cells were removed by gently washing the wells with sterile PBS pH 7.4. Preformed biofilms were then treated with the test peptides at concentrations of 200 ‒ 800 μM and incubated at 37°C for 24 h. Culture without the test peptides served as the untreated control. After the incubation, the test peptides were aspirated gently and the plates were rinsed twice with PBS pH 7.4. Biofilm biomass was subsequently quantified by 0.1% crystal violet staining as previously described.

FIGAIARLLSK [BmKn-22]
Biofilm inhibition (%), preformed biofilm (200 µM, Exp. 1): 30.458% | Biofilm inhibition (%), preformed biofilm (200 µM, Exp. 2): 17.360% | Biofilm inhibition (%), preformed biofilm (200 µM, Exp. 3): 22.328% | Biofilm inhibition (%), preformed biofilm (400 µM, Exp. 1): 27.005% | Biofilm inhibition (%), preformed biofilm (400 µM, Exp. 2): 32.202% | Biofilm inhibition (%), preformed biofilm (400 µM, Exp. 3): 27.300% | Biofilm inhibition (%), preformed biofilm (800 µM, Exp. 1): 44.831% | Biofilm inhibition (%), preformed biofilm (800 µM, Exp. 2): 34.141% | Biofilm inhibition (%), preformed biofilm (800 µM, Exp. 3): 53.943%
